target: ATP-dependent translocase ABCB1 (Homo sapiens, UniProt P08183); test: TP_TRANSPORTER: transepithelial transport in Caco 2 cell; type: functional, cell-based
Sequence (P08183 whole entry): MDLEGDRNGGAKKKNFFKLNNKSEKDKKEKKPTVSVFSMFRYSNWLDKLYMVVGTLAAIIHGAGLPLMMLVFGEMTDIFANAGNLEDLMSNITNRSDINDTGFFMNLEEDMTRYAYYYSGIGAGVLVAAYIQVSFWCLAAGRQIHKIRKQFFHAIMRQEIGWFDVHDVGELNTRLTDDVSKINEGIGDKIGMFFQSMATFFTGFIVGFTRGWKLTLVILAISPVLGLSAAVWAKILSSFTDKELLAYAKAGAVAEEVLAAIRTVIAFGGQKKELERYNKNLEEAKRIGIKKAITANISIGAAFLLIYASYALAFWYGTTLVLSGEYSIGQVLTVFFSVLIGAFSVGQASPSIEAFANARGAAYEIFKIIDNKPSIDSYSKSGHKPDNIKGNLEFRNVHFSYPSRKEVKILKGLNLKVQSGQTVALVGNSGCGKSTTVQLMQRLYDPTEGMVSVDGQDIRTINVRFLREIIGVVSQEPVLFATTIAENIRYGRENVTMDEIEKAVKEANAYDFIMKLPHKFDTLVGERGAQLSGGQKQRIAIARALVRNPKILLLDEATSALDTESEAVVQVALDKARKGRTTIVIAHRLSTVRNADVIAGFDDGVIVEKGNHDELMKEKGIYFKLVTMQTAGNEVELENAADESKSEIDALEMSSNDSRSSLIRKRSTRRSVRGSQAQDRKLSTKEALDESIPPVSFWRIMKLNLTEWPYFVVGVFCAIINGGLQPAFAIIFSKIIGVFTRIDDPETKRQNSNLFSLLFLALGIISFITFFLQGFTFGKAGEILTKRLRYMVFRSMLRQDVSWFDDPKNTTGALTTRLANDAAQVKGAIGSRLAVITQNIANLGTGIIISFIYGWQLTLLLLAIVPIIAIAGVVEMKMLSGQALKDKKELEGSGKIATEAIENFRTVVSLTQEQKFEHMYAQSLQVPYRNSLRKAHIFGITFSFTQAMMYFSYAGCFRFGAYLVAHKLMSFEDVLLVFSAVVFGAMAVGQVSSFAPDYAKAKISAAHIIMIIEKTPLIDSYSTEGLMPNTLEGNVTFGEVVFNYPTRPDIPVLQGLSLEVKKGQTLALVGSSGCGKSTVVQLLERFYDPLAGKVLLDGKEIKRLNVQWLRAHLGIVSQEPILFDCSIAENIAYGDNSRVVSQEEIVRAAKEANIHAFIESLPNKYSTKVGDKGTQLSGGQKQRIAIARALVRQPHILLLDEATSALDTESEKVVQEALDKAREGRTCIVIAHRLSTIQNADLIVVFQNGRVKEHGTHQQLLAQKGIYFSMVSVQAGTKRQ

Activity, substrate [+]:
NS(=O)(=O)N1CCN(C2CN(CC[C@]3(c4ccc(Cl)c(Cl)c4)CCC(=O)N(CC4CC4)C3)C2)CC1
C=CCNc1nc(NCC=C)nc(N2CCC(NCC(c3ccc(F)cc3)c3ccc(F)cc3)CC2)n1
C[C@H]1O[C@@H](O[C@H]2[C@@H](O)C[C@H](O[C@H]3[C@@H](O)C[C@H](O[C@H]4CC[C@@]5(C)[C@H](CC[C@@H]6[C@@H]5C[C@@H](O)[C@]5(C)[C@@H](C7=CC(=O)OC7)CC[C@]65O)C4)O[C@@H]3C)O[C@@H]2C)C[C@H](O)[C@@H]1O [DIGOXIN]
CC(=O)O[C@H]1C(=O)[C@@]2(C)[C@H]([C@H](OC(=O)c3ccccc3)[C@]3(O)C[C@H](OC(=O)[C@H](O)[C@@H](NC(=O)c4ccccc4)c4ccccc4)C(C)=C1C3(C)C)[C@]1(OC(C)=O)CO[C@@H]1C[C@@H]2O [PACLITAXEL]
CO[C@H]1/C=C/O[C@@]2(C)Oc3c(C)c(O)c4c(O)c(c(/C=N/N5CCN(C)CC5)c(O)c4c3C2=O)NC(=O)/C(C)=C\C=C\[C@H](C)[C@H](O)[C@@H](C)[C@@H](O)[C@@H](C)[C@H](OC(C)=O)[C@@H]1C [RIFAMPIN]
CC(C)(C)NC(=O)[C@@H]1C[C@@H]2CCCC[C@@H]2CN1C[C@@H](O)[C@H](Cc1ccccc1)NC(=O)[C@H](CC(N)=O)NC(=O)c1ccc2ccccc2n1 [SAQUINAVIR]
C=CC[C@@H]1/C=C(\C)C[C@H](C)C[C@H](OC)[C@H]2O[C@@](O)(C(=O)C(=O)N3CCCC[C@H]3C(=O)O[C@H](/C(C)=C/[C@@H]3CC[C@@H](O)[C@H](OC)C3)[C@H](C)[C@@H](O)CC1=O)[C@H](C)C[C@@H]2OC [TACROLIMUS ANHYDROUS]
CC[C@@]1(O)C(=O)OCc2c1cc1n(c2=O)Cc2cc3c(CN(C)C)c(O)ccc3nc2-1 [TOPOTECAN]
